The source of these data is patent US20230310428A1, “EGFR INHIBITOR AND PREPARATION METHOD AND USE THEREOF” (HONGYUN BIOTECH CO., LTD., priority 2020, published 2023).

Holding throughout (assay): Growth inhibitory activity of compounds on BaF3 cell lines stably transfected with kinase (MTS, 48 h)
Holding throughout (format): cell-based

Assay [1] has as its target T1, various mutants of kinase EGFR (BaF3 cell lines stably transfected with kinase) (Homo sapiens, UniProt P00533, C797S/L858R/T790M).
T1 construct: expressed in transfected cells; host or cells: BaF3
To be noted: BaF3 cells stably transfected with EGFR L858R/T790M/C797S, read-out: IC50, growth inhibition, L858R/T790M/C797S. The method, boiled down:
(§1)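 OD at 490 nm after 1-4 h MTS/PES incubation gave growth inhibition relative to 0.1% DMSO negative and cell-free medium blank. Compounds: 8-point 1/3 dilution from 10 µM, 48 h, 37 °C. IC50 from inhibition curves; duplicates.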

Assay [2] deals with T2, various mutants of kinase EGFR (BaF3 cell lines stably transfected with kinase) (Homo sapiens, UniProt P00533).
T2 construct: other: BaF3 cells stably transfected with EGFR Δ19Del; MTS, 48 h; other: BaF3 cell line stably transfected with EGFR Δ19Del
To be noted: BaF3 cells stably transfected with EGFR Δ19Del, read-out: IC50, growth inhibition, Δ19Del. A digest of the protocol:
as §1

Assay [3] has as its target T3, various mutants of kinase EGFR (BaF3 cell lines stably transfected with kinase) (Homo sapiens, UniProt P00533, T790M, form not given).
T3 construct: other: BaF3 cells stably transfected with EGFR Δ19Del/T790M; MTS, 48 h; other: BaF3 cell line stably transfected with EGFR Δ19Del/T790M; MTS, 48
To be noted: BaF3 cells stably transfected with EGFR Δ19Del/T790M, read-out: IC50, growth inhibition, Δ19Del/T790M. A digest of the protocol:
as §1

In assay [4] the target is T4, various mutants of kinase EGFR (BaF3 cell lines stably transfected with kinase) (Homo sapiens, UniProt P00533, L858R/T790M).
T4 construct: expressed in transfected cells; host or cells: BaF3
To be noted: BaF3 cells stably transfected with EGFR L858R/T790M, read-out: IC50, growth inhibition, L858R/T790M. The method, boiled down: as §1

For assay [5], the target named is T5, various mutants of kinase EGFR (BaF3 cell lines stably transfected with kinase) (Homo sapiens, UniProt P00533, L858R).
T5 construct: expressed in transfected cells; host or cells: BaF3
To be noted: BaF3 cells stably transfected with EGFR L858R, read-out: IC50, growth inhibition, L858R. The method, boiled down: as §1

Assay [6] addresses T6, various mutants of kinase EGFR (BaF3 cell lines stably transfected with kinase) (Homo sapiens, UniProt P00533, T790M/C797S, form not given).
T6 construct: other: BaF3 cells stably transfected with EGFR Δ19Del/T790M/C797S; MTS, 48; other: BaF3 cell line stably transfected with EGFR Δ19Del/T790M/C7
To be noted: BaF3 cells stably transfected with EGFR Δ19Del/T790M/C797S, read-out: IC50, growth inhibition, Δ19Del/T790M/C797S. The method, boiled down:
as §1

T4 sequence (P00533 25-1210 T790M/L858R): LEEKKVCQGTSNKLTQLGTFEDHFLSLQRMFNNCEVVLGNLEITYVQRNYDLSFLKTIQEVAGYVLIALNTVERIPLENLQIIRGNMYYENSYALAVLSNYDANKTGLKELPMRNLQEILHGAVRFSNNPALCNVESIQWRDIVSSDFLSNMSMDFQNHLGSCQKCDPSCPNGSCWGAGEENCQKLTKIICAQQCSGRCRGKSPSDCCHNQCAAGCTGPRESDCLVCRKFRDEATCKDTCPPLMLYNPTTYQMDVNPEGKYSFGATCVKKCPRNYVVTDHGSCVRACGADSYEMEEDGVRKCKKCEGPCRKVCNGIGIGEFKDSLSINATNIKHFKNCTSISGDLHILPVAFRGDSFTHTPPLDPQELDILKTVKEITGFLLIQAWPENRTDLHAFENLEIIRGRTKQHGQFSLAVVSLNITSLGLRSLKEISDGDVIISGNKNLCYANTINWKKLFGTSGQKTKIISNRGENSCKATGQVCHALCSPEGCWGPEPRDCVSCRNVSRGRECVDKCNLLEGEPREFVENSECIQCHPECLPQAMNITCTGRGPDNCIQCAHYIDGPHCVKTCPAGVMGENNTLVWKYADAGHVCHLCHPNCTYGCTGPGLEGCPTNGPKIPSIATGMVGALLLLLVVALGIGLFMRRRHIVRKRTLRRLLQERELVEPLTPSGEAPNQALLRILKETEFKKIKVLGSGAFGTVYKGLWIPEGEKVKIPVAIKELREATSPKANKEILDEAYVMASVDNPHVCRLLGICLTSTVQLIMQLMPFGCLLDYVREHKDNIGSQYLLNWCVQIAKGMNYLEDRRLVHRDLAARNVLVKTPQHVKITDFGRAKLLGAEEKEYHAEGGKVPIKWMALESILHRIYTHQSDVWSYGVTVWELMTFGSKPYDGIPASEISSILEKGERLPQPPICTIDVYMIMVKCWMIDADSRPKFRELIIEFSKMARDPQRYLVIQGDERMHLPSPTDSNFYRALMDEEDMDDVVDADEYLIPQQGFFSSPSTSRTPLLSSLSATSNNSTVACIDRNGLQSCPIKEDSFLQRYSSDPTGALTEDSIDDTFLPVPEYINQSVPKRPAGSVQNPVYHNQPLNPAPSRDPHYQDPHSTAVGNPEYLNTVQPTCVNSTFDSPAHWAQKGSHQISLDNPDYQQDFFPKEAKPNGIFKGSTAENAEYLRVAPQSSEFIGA
T6 sequence (P00533 with tags, fused parts or gaps DEL746-750/T790M/C797S, form open): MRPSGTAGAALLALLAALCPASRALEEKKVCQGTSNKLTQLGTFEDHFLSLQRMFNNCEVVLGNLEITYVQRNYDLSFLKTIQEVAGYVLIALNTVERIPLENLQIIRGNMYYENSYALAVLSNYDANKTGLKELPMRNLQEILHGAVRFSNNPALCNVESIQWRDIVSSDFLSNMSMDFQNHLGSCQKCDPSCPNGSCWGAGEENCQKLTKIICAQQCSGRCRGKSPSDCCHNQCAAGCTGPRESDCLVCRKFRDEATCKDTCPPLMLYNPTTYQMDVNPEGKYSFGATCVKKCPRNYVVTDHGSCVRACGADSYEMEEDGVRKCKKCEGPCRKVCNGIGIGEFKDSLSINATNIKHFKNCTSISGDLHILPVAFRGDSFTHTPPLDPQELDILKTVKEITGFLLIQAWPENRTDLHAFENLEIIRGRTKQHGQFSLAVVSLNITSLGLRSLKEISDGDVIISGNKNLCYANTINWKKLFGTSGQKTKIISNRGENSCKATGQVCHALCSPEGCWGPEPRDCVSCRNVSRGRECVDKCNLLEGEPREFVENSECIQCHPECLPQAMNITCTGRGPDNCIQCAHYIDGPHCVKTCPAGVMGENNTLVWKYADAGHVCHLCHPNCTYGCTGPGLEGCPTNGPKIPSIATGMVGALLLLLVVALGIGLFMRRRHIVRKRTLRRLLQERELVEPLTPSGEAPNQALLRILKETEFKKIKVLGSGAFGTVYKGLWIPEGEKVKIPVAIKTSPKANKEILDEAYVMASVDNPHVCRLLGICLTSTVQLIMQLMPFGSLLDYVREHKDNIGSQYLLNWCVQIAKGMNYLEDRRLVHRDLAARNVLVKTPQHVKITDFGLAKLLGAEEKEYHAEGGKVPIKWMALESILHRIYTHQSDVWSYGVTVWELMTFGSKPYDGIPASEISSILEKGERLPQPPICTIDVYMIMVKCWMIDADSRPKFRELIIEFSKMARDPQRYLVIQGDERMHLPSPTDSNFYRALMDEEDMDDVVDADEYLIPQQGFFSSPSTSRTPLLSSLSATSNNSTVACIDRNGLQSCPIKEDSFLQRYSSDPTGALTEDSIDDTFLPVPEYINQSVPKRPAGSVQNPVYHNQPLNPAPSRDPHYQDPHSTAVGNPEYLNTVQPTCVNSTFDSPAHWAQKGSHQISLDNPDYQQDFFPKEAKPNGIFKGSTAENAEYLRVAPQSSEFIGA
T3 sequence (P00533 with tags, fused parts or gaps DEL746-750/T790M, form open): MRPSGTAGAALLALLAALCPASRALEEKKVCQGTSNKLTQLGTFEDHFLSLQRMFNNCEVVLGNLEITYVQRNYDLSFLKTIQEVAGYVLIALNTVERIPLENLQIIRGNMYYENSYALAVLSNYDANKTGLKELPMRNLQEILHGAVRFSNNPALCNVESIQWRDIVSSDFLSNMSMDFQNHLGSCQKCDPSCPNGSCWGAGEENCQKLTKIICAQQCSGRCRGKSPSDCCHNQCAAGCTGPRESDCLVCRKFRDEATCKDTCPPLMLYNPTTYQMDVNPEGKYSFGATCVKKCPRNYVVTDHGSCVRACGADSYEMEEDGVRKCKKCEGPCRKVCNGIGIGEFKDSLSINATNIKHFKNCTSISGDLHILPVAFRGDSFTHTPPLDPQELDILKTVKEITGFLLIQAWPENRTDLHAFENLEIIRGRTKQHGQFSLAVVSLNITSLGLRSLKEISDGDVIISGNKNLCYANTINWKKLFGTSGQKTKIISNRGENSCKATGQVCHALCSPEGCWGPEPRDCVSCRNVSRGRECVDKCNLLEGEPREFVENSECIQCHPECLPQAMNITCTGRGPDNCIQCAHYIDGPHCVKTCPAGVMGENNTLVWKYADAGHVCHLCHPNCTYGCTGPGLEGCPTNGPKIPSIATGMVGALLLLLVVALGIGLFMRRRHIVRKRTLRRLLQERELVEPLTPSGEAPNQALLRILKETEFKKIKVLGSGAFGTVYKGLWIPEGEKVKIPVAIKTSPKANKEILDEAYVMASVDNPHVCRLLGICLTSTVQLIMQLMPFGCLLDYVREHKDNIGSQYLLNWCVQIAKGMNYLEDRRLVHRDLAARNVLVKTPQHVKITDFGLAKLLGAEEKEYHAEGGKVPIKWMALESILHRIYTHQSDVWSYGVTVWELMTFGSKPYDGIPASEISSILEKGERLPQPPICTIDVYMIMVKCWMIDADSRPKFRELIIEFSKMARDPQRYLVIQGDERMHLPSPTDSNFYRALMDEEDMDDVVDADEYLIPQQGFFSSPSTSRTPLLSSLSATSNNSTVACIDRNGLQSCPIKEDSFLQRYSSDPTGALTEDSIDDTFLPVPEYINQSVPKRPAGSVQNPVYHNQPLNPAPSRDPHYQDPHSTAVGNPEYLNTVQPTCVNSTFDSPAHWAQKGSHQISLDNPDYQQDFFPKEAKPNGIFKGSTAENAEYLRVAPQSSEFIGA
T5 sequence (P00533 25-1210 L858R): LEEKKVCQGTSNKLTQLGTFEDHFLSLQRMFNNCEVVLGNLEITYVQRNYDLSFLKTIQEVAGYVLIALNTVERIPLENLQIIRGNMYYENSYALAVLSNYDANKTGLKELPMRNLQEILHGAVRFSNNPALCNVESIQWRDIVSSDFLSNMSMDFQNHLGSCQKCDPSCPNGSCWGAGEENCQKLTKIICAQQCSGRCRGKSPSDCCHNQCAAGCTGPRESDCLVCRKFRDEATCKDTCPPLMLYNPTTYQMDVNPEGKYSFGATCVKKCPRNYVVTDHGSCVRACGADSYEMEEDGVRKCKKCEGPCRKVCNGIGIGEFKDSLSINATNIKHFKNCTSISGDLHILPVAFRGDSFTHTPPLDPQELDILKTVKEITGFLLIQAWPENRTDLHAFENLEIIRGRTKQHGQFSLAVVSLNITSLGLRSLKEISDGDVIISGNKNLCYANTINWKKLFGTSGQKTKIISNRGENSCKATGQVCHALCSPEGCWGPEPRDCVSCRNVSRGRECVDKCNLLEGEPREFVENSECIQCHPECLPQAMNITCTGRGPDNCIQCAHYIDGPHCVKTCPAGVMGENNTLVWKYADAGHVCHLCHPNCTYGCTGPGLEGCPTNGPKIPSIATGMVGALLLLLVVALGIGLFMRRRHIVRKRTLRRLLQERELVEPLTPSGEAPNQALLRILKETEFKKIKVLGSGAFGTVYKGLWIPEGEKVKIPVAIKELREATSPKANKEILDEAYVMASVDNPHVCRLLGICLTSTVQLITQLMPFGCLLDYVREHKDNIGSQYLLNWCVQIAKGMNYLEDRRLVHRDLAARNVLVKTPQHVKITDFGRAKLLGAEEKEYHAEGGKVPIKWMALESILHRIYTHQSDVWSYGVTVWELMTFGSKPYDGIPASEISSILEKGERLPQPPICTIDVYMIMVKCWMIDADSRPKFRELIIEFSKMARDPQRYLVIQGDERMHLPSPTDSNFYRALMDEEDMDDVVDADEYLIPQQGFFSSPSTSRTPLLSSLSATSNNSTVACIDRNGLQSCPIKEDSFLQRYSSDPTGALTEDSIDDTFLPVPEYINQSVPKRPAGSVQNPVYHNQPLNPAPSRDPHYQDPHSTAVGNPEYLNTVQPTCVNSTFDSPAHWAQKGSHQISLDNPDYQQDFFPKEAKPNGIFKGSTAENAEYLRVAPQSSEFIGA

Take `COc1cc(N2CCC(N3CCN(C)CC3)CC2)c(CC2CC2)cc1Nc1ncc(Cl)c(Nc2ccc3nccnc3c2N(C)S(=O)(=O)C(F)(F)F)n1` [Compound I-264]: the IC50 in assay [1] was 50 to 500 nM; in assay [2] it was 500 to 2500 nM; in assay [3] it was 500 to 2500 nM; in assay [4], 500 to 2500 nM; in assay [5], 500 to 2500 nM; in assay [6], 50 to 500 nM.

Consider `COc1cc(N2CCC(N(C)C)CC2)c(C)cc1Nc1ncc(Cl)c(Nc2ccc3nccnc3c2N(C)S(=O)(=O)C(F)(F)F)n1` [Compound I-265], for which the IC50 in assay [1] fell in the range of 50 to 500 nM; in assay [2], 500 to 2500 nM; in assay [3] it was 500 to 2500 nM; in assay [4], 500 to 2500 nM; in assay [5] it was 500 to 2500 nM; in assay [6], 50 to 500 nM.

With `COc1cc(N2CCN(C)CC2)c(C)cc1Nc1ncc(Cl)c(Nc2ccc3nccnc3c2N(C)S(=O)(=O)C(F)(F)F)n1` [Compound I-266], the IC50 in assay [1] fell in the range of 50 to 500 nM; in assay [2] it was 500 to 2500 nM; in assay [3] it was 500 to 2500 nM; in assay [4], 500 to 2500 nM; in assay [5], 500 to 2500 nM; in assay [6], 500 to 2500 nM.

Take `CCc1cc(Nc2ncc(Cl)c(Nc3ccc4nccnc4c3N(C)S(=O)(=O)C(F)(F)F)n2)c(OC)cc1N1CCN(C)CC1` [Compound I-267]: the IC50 in assay [1], in assay [2], in assay [3], in assay [4], in assay [5] and in assay [6] was 50 to 500 nM throughout.

As for `COc1cc(N2CCC(N(C)C)C2)c(C)cc1Nc1ncc(Cl)c(Nc2ccc3nccnc3c2N(C)S(=O)(=O)C(F)(F)F)n1` (stereo not drawn) [Compound I-268], the IC50 in assay [1] was 50 to 500 nM; in assay [2], 500 to 2500 nM; in assay [3], 500 to 2500 nM; in assay [4], 500 to 2500 nM; in assay [5], 500 to 2500 nM; in assay [6], 50 to 500 nM.

As for `CCc1cc(Nc2ncc(C3CC3)c(Nc3ccc4nccnc4c3N(C)S(C)(=O)=O)n2)c(OC)cc1N1CCC(N2CCN(C)CC2)CC1` [Compound I-269], the IC50 in assay [1], in assay [2], in assay [3], in assay [4], in assay [5] and in assay [6] was at most 50 nM in each case.

As to `CCc1cc(Nc2ncc(C3CC3)c(Nc3ccc4nccnc4c3N(C)S(C)(=O)=O)n2)c(OC)nc1N1CCC(N2CCN(C)CC2)CC1` [Compound I-270], the IC50 in assay [1] is at most 50 nM; in assay [2] it was 50 to 500 nM; in assay [3], 50 to 500 nM; in assay [4] it was 50 to 500 nM; in assay [5], at most 50 nM; in assay [6], at most 50 nM.

For `C=Cc1cc(Nc2ncc(C3CC3)c(Nc3ccc4nccnc4c3N(C)S(C)(=O)=O)n2)c(OC(F)(F)F)cc1N1CCC(N2CCN(C)CC2)CC1` [Compound I-271], the IC50 in assay [1] was at most 50 nM; in assay [2], 50 to 500 nM; in assay [3], 50 to 500 nM; in assay [4], 50 to 500 nM; in assay [5], 50 to 500 nM; in assay [6] it was at most 50 nM.

`COc1cc(N2CCC(N(C)C)CC2)c(C)cc1Nc1ncc(C2CC2)c(Nc2ccc3nccnc3c2N(C)S(C)(=O)=O)n1` [Compound I-272]: the IC50 in assay [1], in assay [2], in assay [3], in assay [4], in assay [5] and in assay [6] was at most 50 nM each time.

`CCc1cc(Nc2ncc(C3CC3)c(Nc3ccc4nccnc4c3N(C)S(C)(=O)=O)n2)c(OC)cc1N1CCC(N(C)C)CC1` [Compound I-273]: the IC50 in assay [1], in assay [2], in assay [3], in assay [4], in assay [5] and in assay [6] was at most 50 nM in each case.

Turning to `COc1cc(N2CCC(N(C)C)C2)c(C)cc1Nc1ncc(C2CC2)c(Nc2ccc3nccnc3c2N(C)S(C)(=O)=O)n1` (stereo not drawn) [Compound I-274], the IC50 in assay [1] is 50 to 500 nM; in assay [2], 50 to 500 nM; in assay [3] it was 50 to 500 nM; in assay [4], 50 to 500 nM; in assay [5], 50 to 500 nM; in assay [6] it was at most 50 nM.

With `CCc1cc(Nc2ncc(C3CC3)c(Nc3ccc4nccnc4c3N(C)S(C)(=O)=O)n2)c(OC)cc1N1CCC(N(C)C)C1` (stereo not drawn) [Compound I-275], the IC50 in assay [1] is at most 50 nM; in assay [2] it was at most 50 nM; in assay [3] it was at most 50 nM; in assay [4] it was 50 to 500 nM; in assay [5] it was at most 50 nM; in assay [6] it was at most 50 nM.

In the case of `COc1cc(N2CCC(N3CCN(C)CC3)CC2)c(C)cc1Nc1ncc(C)c(Nc2ccc3nccnc3c2N(C)S(C)(=O)=O)n1` [Compound I-276], the IC50 in assay [1], in assay [2], in assay [3], in assay [4], in assay [5] and in assay [6] was at most 50 nM each time.

`CCc1cc(Nc2ncc(C)c(Nc3ccc4nccnc4c3N(C)S(C)(=O)=O)n2)c(OC)cc1N1CCC(N2CCN(C)CC2)CC1` [Compound I-277]: the IC50 in assay [1], in assay [2], in assay [3], in assay [4], in assay [5] and in assay [6] was at most 50 nM throughout.

On to `CCc1cc(Nc2ncc(C)c(Nc3ccc4nccnc4c3N(C)S(C)(=O)=O)n2)c(OC)nc1N1CCC(N2CCN(C)CC2)CC1` [Compound I-278], for which the IC50 in assay [1], in assay [2], in assay [3], in assay [4], in assay [5] and in assay [6] was at most 50 nM throughout.

With `CCc1cc(Nc2ncc(C)c(Nc3ccc4nccnc4c3N(C)S(C)(=O)=O)n2)c(OC)cc1N1CCC(N(C)C)CC1` [Compound I-279], the IC50 in assay [1], in assay [2], in assay [3], in assay [4], in assay [5] and in assay [6] was at most 50 nM throughout.

`CCc1cc(Nc2ncc(C)c(Nc3ccc4nccnc4c3N(C)S(C)(=O)=O)n2)c(OC)cc1N1CCC(N(C)C)C1` (stereo not drawn) [Compound I-280]: the IC50 in assay [1], in assay [2], in assay [3], in assay [4], in assay [5] and in assay [6] was at most 50 nM throughout.

Turning to `CCc1cc(Nc2ncc(OC)c(Nc3ccc4nccnc4c3N(C)S(C)(=O)=O)n2)c(OC(F)(F)F)cc1N1CCC(N2CCN(C)CC2)CC1` [Compound I-281], the IC50 in assay [1], in assay [2], in assay [3], in assay [4], in assay [5] and in assay [6] was at most 50 nM in each case.

Regarding `CCc1cc(Nc2ncc(OC)c(Nc3ccc4nccnc4c3N(C)S(C)(=O)=O)n2)c(OC)cc1N1CCC(N(C)C)CC1` [Compound I-282], the IC50 in assay [1], in assay [2], in assay [3], in assay [4], in assay [5] and in assay [6] was at most 50 nM in each case.
